In patent publication US20120225061A1, “TETRASUBSTITUTED CYCLOHEXYL COMPOUNDS AS KINASE INHIBITORS” (priority 2011, published 2012):

What was measured:
[1] = test system: KMS11 (human myeloma cell line); test: Cell proliferation assay (CellTiter-Glo) in KMS11 cells; type: cell-based; conditions: KMS-11, 72 h, Table 5, 3 days, read-out: KMS11-luc EC50
Method: KMS11 (human myeloma cell line), were cultured in IMDM supplemented with 10% FBS, sodium pyruvate and antibiotics. Cells were plated in the same medium at a density of 2000 cells per well into 96 well tissue culture plates, with outside wells vacant, on the day of assay.
Test compounds supplied in DMSO were diluted into DMSO at 500 times the desired final concentrations before dilution into culture media to 2 times final concentrations.
After 3 days plates were equilibrated to room temperature and equal volume of CellTiter-Glow Reagent (Promega) was added to the culture wells. The plates were agitated briefly and luminescent signal was measured with luminometer.

[2] = target: Pim1 kinase (Homo sapiens, UniProt P11309); test: Pim1 AlphaScreen assay (high ATP)
Pim1 kinase, sequence (P11309 whole entry): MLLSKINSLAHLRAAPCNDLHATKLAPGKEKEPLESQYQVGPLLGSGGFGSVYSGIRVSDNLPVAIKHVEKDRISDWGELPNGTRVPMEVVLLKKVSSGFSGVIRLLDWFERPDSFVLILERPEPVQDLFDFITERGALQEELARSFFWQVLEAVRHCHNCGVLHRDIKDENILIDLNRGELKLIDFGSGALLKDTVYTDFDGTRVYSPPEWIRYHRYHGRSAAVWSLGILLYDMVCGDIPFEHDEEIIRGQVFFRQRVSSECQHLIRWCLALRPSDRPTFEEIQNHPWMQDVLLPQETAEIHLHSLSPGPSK
Method: The activity of Pim 1, Pim 2, & Pim 3 is measured using a homogeneous bead based system quantifying the amount of phosphorylated peptide substrate resulting from kinase-catalyzed phosphoryl transfer to a peptide substrate. Compounds to be tested are dissolved in 100% DMSO and directly distributed to a white 384-well plate at 0.25 μl per well. […] This is followed by the addition of 5 μl/well of Pim 1, Pim 2 or Pim 3 kinase in assay buffer (concentrations described below). Final assay concentrations (described below) are in 2.5% DMSO. The reactions are performed for ˜2 hours, then stopped by the addition of 10 μl of 0.75 μg/ml anti-phospho Ser/Thr antibody (Cell Signaling), 10 μg/ml Protein A AlphaScreen beads (Perkin Elmer), and 10 μg/ml streptavidin coated AlphaScreen beads in stop/detection buffer (50 mM EDTA, 95 mM Tris, pH=7.5, 0.01% Tween-20). The stopped reactions are incubated overnight in the dark. The phosphorylated peptide is detected via an oxygen anion initiated chemiluminescence/fluorescence cascade using the Envision plate reader (Perkin Elmer).

[3] = target: Pim2 kinase (Homo sapiens, UniProt Q9P1W9); test: Pim2 AlphaScreen assay (high ATP)
Pim2 kinase, sequence (Q9P1W9 whole entry): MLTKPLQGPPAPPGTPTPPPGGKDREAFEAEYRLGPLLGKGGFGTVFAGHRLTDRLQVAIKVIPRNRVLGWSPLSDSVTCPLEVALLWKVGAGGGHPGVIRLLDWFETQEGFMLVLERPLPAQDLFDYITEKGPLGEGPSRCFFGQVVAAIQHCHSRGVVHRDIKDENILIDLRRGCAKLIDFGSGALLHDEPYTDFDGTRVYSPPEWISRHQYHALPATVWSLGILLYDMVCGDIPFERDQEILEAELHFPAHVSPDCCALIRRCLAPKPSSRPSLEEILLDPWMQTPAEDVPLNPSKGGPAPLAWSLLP

[4] = target: Pim3 kinase (Homo sapiens, UniProt Q86V86); test: Pim3 AlphaScreen assay (high ATP)

SMILES	EC50 [1]	IC50 [2]	IC50 [3]	IC50 [4]
CC1C[C@@H](c2ccncc2NC(=O)c2ccc(F)c(-c3c(F)cc(Oc4ccncc4)cc3F)n2)C[C@@H](O)[C@]1(C)O (stereo in doubt) [Example 116, 6-(2,6-difluoro-4-(pyridin-4-yloxy)phenyl)-N-(4-((1R,3R,4R,5S)-3,4-dihydroxy-4,5-dimethylcyclohexyl)pyridin-3-yl)-5-fluoropicolinamide]	> 10000 nM	2.65 nM	672 nM	189 nM
C[C@H]1C[C@@H](c2ccncc2NC(=O)c2ccc(F)c(-c3c(F)cc(C4CCS(=O)(=O)CC4)cc3F)n2)C[C@@H](O)C1(C)O (stereo in doubt) [Example 120, N-(4-((1R,3R,4S,5S)-3,4-dihydroxy-4,5-dimethylcyclohexyl)pyridin-3-yl)-6-(4-(1,1-dioxidotetrahydro-2H-thiopyran-4-yl)-2,6-difluorophenyl)-5-fluoropicolinamide]	723 nM	0.26 nM	48.7 nM	31.5 nM
CC[C@]1(O)[C@H](C)C[C@H](c2ccncc2NC(=O)c2ccc(F)c(-c3c(F)cccc3F)n2)C[C@@H]1N [Example 12, N-(4-((1S,3S,4S,5R)-3-amino-4-ethyl-4-hydroxy-5-methylcyclohexyl)pyridin-3-yl)-6-(2,6-difluorophenyl)-5-fluoropicolinamide]		26.2 nM	1440 nM	303 nM
COc1cc(F)c(-c2nc(C(=O)Nc3cnccc3[C@H]3C[C@@H](C)[C@](C)(O)[C@@H](N)C3)ccc2F)c(F)c1 [Example 16, N-(4-((1S,3S,4S,5R)-3-amino-4-hydroxy-4,5-dimethylcyclohexyl)pyridin-3-yl)-6-(2,6-difluoro-4-methoxyphenyl)-5-fluoropicolinamide]		4.25 nM	780 nM	73 nM
C[C@@H]1C[C@H](c2ccncc2NC(=O)c2nc(-c3c(F)cccc3F)ccc2N)C[C@H](O)[C@]1(O)CF [Example 17, 3-amino-6-(2,6-difluorophenyl)-N-(4-((1S,3S,4S,5R)-4-(fluoromethyl)-3,4-dihydroxy-5-methylcyclohexyl)pyridin-3-yl) picolinamide]		28.4 nM	4650 nM	646 nM
C[C@@H]1C[C@H](c2ccncc2NC(=O)c2nc(-c3c(F)cccc3F)c(F)cc2N)C[C@H](O)[C@]1(O)CF [Example 24, 3-amino-6-(2,6-difluorophenyl)-5-fluoro-N-(4-((1S,3S,4S,5R)-4-(fluoromethyl)-3,4-dihydroxy-5-methylcyclohexyl)pyridin-3-yl) picolinamide]		22.1 nM	4940 nM	786 nM
C[C@H]1C[C@@H](c2ccncc2NC(=O)c2ccc(F)c(-c3c(F)cc(C4(O)CCOCC4)cc3F)n2)C[C@@H](O)[C@]1(C)O [Example 110, 6-(2,6-difluoro-4-(4-hydroxytetrahydro-2H-pyran-4-yl)phenyl)-N-(4-((1R,3R,4R,5S)-3,4-dihydroxy-4,5-dimethylcyclohexyl)pyridin-3-yl)-5-fluoropicolinamide]	322 nM			
C[C@H]1C[C@@H](c2ccncc2NC(=O)c2nc(-c3cccc(OC(F)F)n3)ccc2N)C[C@@H](O)[C@]1(C)O [Example 123, 5-amino-6′-(difluoromethoxy)-N-(4-((1R,3R,4R,5S)-3,4-dihydroxy-4,5-dimethylcyclohexyl)pyridin-3-yl)-2,2′-bipyridine-6-carboxamide]		35.2 nM	20200 nM	454 nM
C[C@H]1C[C@@H](c2ccncc2NC(=O)c2nc(-c3cccc(OCC(F)(F)F)n3)ccc2N)C[C@@H](O)[C@]1(C)O [Example 124, 5-amino-N-(4-((1R,3R,4R,5S)-3,4-dihydroxy-4,5-dimethylcyclohexyl)pyridin-3-yl)-6′-(2,2,2-trifluoroethoxy)-2,2′-bipyridine-6-carboxamide]		21.7 nM	> 25000 nM	736 nM

Other lines, results leading:

EC50 [1]	IC50 [2]	IC50 [3]	IC50 [4]	SMILES
20 nM	0.07 nM	3.2 nM		C[C@H]1C[C@@H](c2ccncc2NC(=O)c2ccc(F)c(-c3c(F)cc(CCO)cc3F)n2)C[C@@H](N)[C@]1(C)O [Example 1, N-(4-((1R,3R,4R,5S)-3-amino-4-hydroxy-4,5-dimethylcyclohexyl)pyridin-3-yl)-6-(2,6-difluoro-4-(2-hydroxyethyl)phenyl)-5-fluoropicolinamide]
59 nM	0.05 nM	2.68 nM	1.33 nM	CCc1cc(F)c(-c2nc(C(=O)Nc3cnccc3[C@H]3C[C@@H](N)[C@](C)(O)[C@@H](C)C3)ccc2F)c(F)c1 [Example 2, N-(4-((1R,3R,4R,5S)-3-amino-4-hydroxy-4,5-dimethylcyclohexyl)pyridin-3-yl)-6-(4-ethyl-2,6-difluorophenyl)-5-fluoropicolinamide]
126 nM	0.1 nM	10.6 nM	1.94 nM	C[C@H]1C[C@@H](c2ccncc2NC(=O)c2ccc(F)c(-c3c(F)ccc(OCCO)c3F)n2)C[C@@H](N)[C@]1(C)O [Example 3, N-(4-((1R,3R,4R,5S)-3-amino-4-hydroxy-4,5-dimethylcyclohexyl)pyridin-3-yl)-6-(2,6-difluoro-3-(2-hydroxyethoxy)phenyl)-5-fluoropicolinamide]
34 nM	0.09 nM	4.33 nM	2.43 nM	COCc1cc(F)c(-c2nc(C(=O)Nc3cnccc3[C@H]3C[C@@H](N)[C@](C)(O)[C@@H](C)C3)ccc2F)c(F)c1 [Example 4, N-(4-((1R,3R,4R,5S)-3-amino-4-hydroxy-4,5-dimethylcyclohexyl)pyridin-3-yl)-6-(2,6-difluoro-4-(methoxymethyl)phenyl)-5-fluoropicolinamide]
202 nM	0.14 nM	24.9 nM	2.4 nM	COCCOc1ccc(F)c(-c2nc(C(=O)Nc3cnccc3[C@H]3C[C@@H](N)[C@](C)(O)[C@@H](C)C3)ccc2F)c1F [Example 6, N-(4-((1R,3R,4R,5S)-3-amino-4-hydroxy-4,5-dimethylcyclohexyl)pyridin-3-yl)-6-(2,6-difluoro-3-(2-methoxyethoxy)phenyl)-5-fluoropicolinamide]
	0.13 nM	8.1 nM	1.43 nM	CC[C@]1(O)[C@H](N)C[C@H](c2ccncc2NC(=O)c2ccc(F)c(-c3c(F)cccc3F)n2)C[C@@H]1C [Example 11, N-(4-((1R,3R,4R,5S)-3-amino-4-ethyl-4-hydroxy-5-methylcyclohexyl)pyridin-3-yl)-6-(2,6-difluorophenyl)-5-fluoropicolinamide]
	0.08 nM	6 nM	1.04 nM	COc1cc(F)c(-c2nc(C(=O)Nc3cnccc3[C@H]3C[C@@H](N)[C@](C)(O)[C@@H](C)C3)ccc2F)c(F)c1 [Example 15, N-(4-((1R,3R,4R,5S)-3-amino-4-hydroxy-4,5-dimethylcyclohexyl)pyridin-3-yl)-6-(2,6-difluoro-4-methoxyphenyl)-5-fluoropicolinamide]
	0.58 nM	28.6 nM	10.1 nM	C[C@H]1C[C@@H](c2ccncc2NC(=O)c2nc(-c3c(F)cccc3F)c(F)cc2N)C[C@@H](O)[C@@]1(O)CF [Example 23, 3-amino-6-(2,6-difluorophenyl)-5-fluoro-N-(4-((1R,3R,4R,5S)-4-(fluoromethyl)-3,4-dihydroxy-5-methylcyclohexyl)pyridin-3-yl) picolinamide]
84 nM		5.73 nM		C[C@H]1C[C@@H](c2ccncc2NC(=O)c2ccc(F)c(-c3c(F)cc(C4COC4)cc3F)n2)C[C@@H](N)[C@]1(C)O [Example 63, N-(4-((1R,3R,4R,5S)-3-amino-4-hydroxy-4,5-dimethylcyclohexyl)pyridin-3-yl)-6-(2,6-difluoro-4-(oxetan-3-yl)phenyl)-5-fluoropicolinamide]
24 nM		3.02 nM		C[C@H]1C[C@@H](c2ccncc2NC(=O)c2nc(-c3c(F)cccc3F)sc2N)C[C@@H](N)[C@]1(C)O [Example 68, 5-amino-N-(4-((1R,3R,4R,5S)-3-amino-4-hydroxy-4,5-dimethylcyclohexyl)pyridin-3-yl)-2-(2,6-difluorophenyl)thiazole-4-carboxamide]
98 nM		4 nM		CCOCc1cc(F)c(-c2nc(C(=O)Nc3cnccc3[C@H]3C[C@@H](N)[C@](C)(O)[C@@H](C)C3)ccc2F)c(F)c1 [Example 72, N-(4-((1R,3R,4R,5S)-3-amino-4-hydroxy-4,5-dimethylcyclohexyl)pyridin-3-yl)-6-(4-(ethoxymethyl)-2,6-difluorophenyl)-5-fluoropicolinamide]
256 nM	0.02 nM	1.39 nM		CC(C)c1cc(F)c(-c2nc(C(=O)Nc3cnccc3[C@H]3C[C@@H](N)[C@](C)(O)[C@@H](C)C3)ccc2F)c(F)c1 [Example 117, N-(4-((1R,3R,4R,5S)-3-amino-4-hydroxy-4,5-dimethylcyclohexyl)pyridin-3-yl)-6-(2,6-difluoro-4-isopropylphenyl)-5-fluoropicolinamide]
578 nM		1.53 nM		C[C@H]1C[C@@H](c2ccncc2NC(=O)c2ccc(F)c(-c3c(F)cc(C4CCS(=O)(=O)CC4)cc3F)n2)C[C@@H](N)[C@]1(C)O [Example 119, N-(4-((1R,3R,4R,5S)-3-amino-4-hydroxy-4,5-dimethylcyclohexyl)pyridin-3-yl)-6-(4-(1,1-dioxidotetrahydro-2H-thiopyran-4-yl)-2,6-difluorophenyl)-5-fluoropicolinamide]
